Key:
[1] = tested on: TSPO+ PC-3 PIP and PC-3 flu prostate xenografts; test: In vivo NIRF imaging in PC-3 PIP and PC-3 flu xenograft bearing mice; design: species or system athymic nude mice; conditions: for Distribution of fluorescent signal, tracer only: 8 nmol intraperitoneally
Experimental: (§1) FIG. 7 depicts imaging of athymic nude mice bearing two subcutaneous xenografts each consisting of one PC-3 PIP (PSMA+ stable transfected, macrophage and vasculature enriched) and PC-3 flu (PC-3 transfected with empty vector) were injected intraperitoneally with 8 nmol of DPA-713-IRDye680LT when the tumors reached 4-8 mm in diameter. […] The mice were imaged in vivo at 1 hour post-injection and again at 24 hours post-injection.
Prostate lines PC-3 PIP (PSMA stable transfected) and PC-3 flu (empty vector transfected) cells were originally a gift from Warren B. Heston (Cleveland Clinic Foundation). PC-3 is androgen insensitive and constituitively expresses TSPO. […] Intact male athymic nude mice were inoculated subcutaneously with 2×10^6 PC-3 PIP cells behind the right forearm and 2×10^6 PC-3 flu cells behind the left forearm and were allowed to grow for 14 days until they reached 1 cm in longest diameter. Mice bearing LNCaP xenografts were inoculated with 5×10^6 cells in Matrigel (1:1, vol:vol) (Becton Dickenson, Franklin Lakes, N.J.) and were allowed to grow for a year before they reached 1 cm in diameter. The mice were then used in imaging experiments as described below.
PC-3 PIP and -flu xenograft bearing mice. […] The mice were anesthetized with isoflurane gas (2% in oxygen) and imaged at 1 hour and 24 hours post-injection using the Pearl Impulse imager using the 680 absorption/710 emission channels (DPA-713-IRDye680LT). PIP/flu and LNCaP-bearing mice were imaged using the inventive probe DPA-713-IRDye800CW at 1 hour post-injection using a Perkin Elmer IVIS 200 instrument set to absorb at 790 nm and emit at 810 nm. Images were visualized and processed using the manufacturer's Living Image software.
as §1, with “Prostate tumors that have become androgen insensitive constituitively express TSPO, including the PC-3 cell line. Athymic” for “FIG. 7 depicts imaging of athymic”

[2] = target: T1, TSPO (3H-R-PK11195 binding in J774 macrophages) (Mus musculus, UniProt P50637); test: IC50 determination: inhibition of [3H]PK11195 binding in live J774 macrophage-like cells; design: species or system murine; conditions: fixed concentration of [3H]PK11195, FIG. 3
T1 construct: using a fixed number of live murine J774 macrophage-like cells; endogenous in cells; host or cells: J774 murine macrophage-like cell line (live cells)
Experimental: FIG. 3 is a graph showing the IC50 for inhibition of 3H-R-PK11195 binding in J774 macrophages by DPA713-IRDye680LT (nM).
The IC50 value determination was done by using a fixed number of live murine J774 macrophage-like cells and incubating increasing concentrations of DPA-713-IRDye against a fixed concentration of [^3H]PK11195. All reactions and washes (50 mM Tris, pH 7.4) are done using a Brandell Cell Harvester and the cells are counted in a scintillation counter with scintillent at the end. The cpm for each group is then plotted against the log of DPA-713-IRDye concentration and the data fitted to a sigmoidal curve. The 50% inhibition of [^3H]PK11195 binding is then determined and reported as the IC50 (FIG. 3).

[3] = tested on: TSPO+ MDA-MB-231 / MDA-MB-231-PSMA xenografts; test: In vivo NIRF imaging in TSPO+ MDA-MB-231 breast cancer xenograft bearing mice; design: species or system NOD-SCID mice; conditions: 6 nmol intraperitoneally; imaged 1-24 hours
Experimental: Cell lines and Tumor Models. Generation of MDA-MD-231-LMD-PSMA cells. LV-PSMA is a VSV-G pseudotyped lentivirus encoding PSMA which was packaged in 293T cells. LMD-PSMA cells were generated in-house by repetitive lentiviral transduction of a cell line isolated from a lung metastasis derived MDA-MB-231 xenograft in a female NOD-SCID mouse. PSMA expression was evaluated by western blot analysis with 7E11-05 (1:200 dilution). […] Six-to-eight week old female NOD SCID mice were injected subcutaneously with 5×10^6 MDA-MB-231-LMD (a lung metastasis-derived subline of parental MDA-MB-231 behind the right forearm and 5×10^6 MDA-MB-231-LMD-PSMA (the same cell line with Prostate Specific Membrane Antigen (PSMA) stably knocked in via lentiviral vector) injected behind the […] xenografts were allowed to grow until the PSMA xenograft was at least 3 mm in diameter while the −LMD xenograft had reached 6-8 mm in diameter.
Serial in vivo NIRF imaging in TSPO+MDA-MB-231 LMD±PSMA and PC-3 PIP and -flu tumor xenograft bearing mice. MDA-MB-231 LMD lines: one mouse was imaged serially at 1 hour post-tracers, 4 hours, 8 hours and 24 hours post-tracers using a Pearl Impulse Imager (LI-COR Biosciences) with dedicated 710 and 800 nm emission filters. All images were scaled to the same maximum using the manufacturer's software to facilitate direct comparison of all timepoints. […]

## CCN(CC)C(=O)Cc1c(-c2ccc(OCCNC(=O)CCCCc3cccc(C(=C\C=C4/N(CCCS(=O)(=O)O)c5ccc6c(S(=O)(=O)O)cc(S(=O)(=O)O)cc6c5C4(C)C)/C=C/C4=[N+](CCCS(=O)(=O)[O-])c5ccc6c(S(=O)(=O)O)cc(S(=O)(=O)O)cc6c5C4(C)C)c3)cc2)nn2c(C)cc(C)nc12 [DPA-713-IRDye680LT, 3-(2-((1E,3Z,5Z)-3-(3-(5-(2-(4-(3-(2-(diethylamino)-2-oxoethyl)-5,7-dimethylpyrazolo[1,5-a]pyrimidin-2-yl)phenoxy)ethylamino)-5-oxopentyl)phenyl)-5-(1,1-dimethyl-6,8-disulfo-3-(3-sulfopropyl)-1Hbenzo[e]indol-2(3H)-ylidene)penta-1,3-dienyl)-1,1-dimethyl-6,8-disulfo-1H-benzo[e]indolium-3-yl)propane-1-sulfonate]
[1]; 1 hour post-injection
  Distribution of fluorescent signal, tracer only: only the macrophage enriched PC-3 PIP tumor is clearly visible
[1]; 24 hours post-injection
  Distribution of fluorescent signal, tracer only: distributed at the periphery of both tumors in the tracer-only mouse and is strongly retained by TSPO+ kidneys
[1]; 8 nmol tracer + 20 mg/kg unlabeled DPA-713, 1 hour post-injection
  Tumor uptake with co-administered unlabeled DPA-713: Neither tumor takes up the fluorescent probe
[1]; 8 nmol tracer + 20 mg/kg unlabeled DPA-713, 24 hours post-injection
  Tumor and kidney uptake with co-injected unlabeled DPA-713: neither tumor nor kidney uptake
[1]; 24 hours post-injection, intraperitoneal
  Clearance of unbound probe: cleared from the peritoneal space
[2]
  IC50: ~325 nM
[3]
  Probe uptake in the larger (8 mm) PSMA+ xenograft: visible 1 hour following peritoneal injection and continues through 24 hours after injection
  Probe uptake in the smaller (3 mm) parental xenograft: no observable uptake until the fur and skin are removed at 24 hours post-injection

Reference: patent publication US9498546B2, “Synthesis and application of novel imaging agents conjugated to DPA 713 analogs for imaging inflammation” (THE JOHNS HOPKINS UNIVERSITY, priority 2012, dated 2016)
